Reference: patent publication US4022907A, “Pharmaceutical compositions containing 1,3-dithiacycloalkylidene malonates” (Nihon Nohyaku Co. Ltd., priority 1975, dated 1977)

Tests used:
[1] = tested on: CCl4-induced hepatotoxicity; experiment: Protection against CCl4-induced hepatotoxicity (mice); type: in vivo, mice (four-week-old male, dd strain); conditions: 250 mg/kg oral, average of 5 to 6 mice; for Liver damage index: CCl4 0.05 ml/kg oral after 6 h, 24 h after CCl4, scale 0 Normal, 2 Slightly recognized, 4 Clearly observable damage, 6 Heavy damage, CCl4 alone 5.2, control 0; for p-GPT: plasma, 24 h after CCl4 0.05 ml/kg oral, values over 1,000 regarded as 1,000, CCl4 alone >1,000, control 35
Excerpt: Carbon tetrachloride (CCl4) administration induces centrilobular necrosis of the liver associated with loss of diphosphopyridine nucleotide, hepatic glycogen, coenzyme A and increase in neutral fat. Release of several enzymes from the hepatocytes, and increase of enzyme activities in the plasma are recognized as the result of the damage of the liver. A suitable means for evaluating the degree of damage induced by CCl4 or the degree of protection afforded by drugs is to study the plasma glutamic-pyruvic transaminase(p-GPT) activity.
Methods: The test compounds were dissolved or suspended in olive oil and administered orally at the dose of 250 mg/kg to the mice (Four-week-old male mice-dd strain). After 6 hours, CCl4 was administered orally (0.05 ml/kg as olive oil solution). Animals were killed 24 hours after CCl4 administration, and the liver was grossly observed. The plasma was obtained by centrifugation. Activities of p-GPT were determined by the method of Reitman and Frankels and expressed in Karmen units. Score for liver damage index was as follows:
Each figure indicates average of 5 to 6 mice. Values of p-GPT over 1,000 Karmen unit regarded as 1,000 for calculation of average for convenience.

[2] = tested on: thioacetamide-induced hepatotoxicity; experiment: Therapeutic effect against thioacetamide-induced hepatotoxicity, BSP test (rats); type: in vivo, rats (Sprague Dawley strain)
Procedure: In the tests of this Example, TAA was repeatedly administered to animals to prepare test animals suffering from somewhat chronic liver damages, and then the present compounds were administered thereto to know whether or not the compounds were effective against chronic hepatitis.
The degree of the liver damage and the therapeutic effects of the compounds were evaluated according to BSP test. The BSP test is a method in which BSP (sulfobromophthalein sodium), a dye known to be quickly metabolized in and excreted from the liver, is intravenously injected into animals and, after a definite period of time, the blood is taken out to measure the amount of BSP remaining in the plasma. In case the animals are suffering from the liver damage, the dye will remain, according to the degree of the damage, at the stage where a major portion of BSP is metabolized and excreted in the case of normal animals. Five groups of rats (Sprague Dawley strain) were treated as follows:
Group A: The rats were orally administered with 100 mg/kg of thioacetamide,at 3 days intervals for 36 days (12 times of the administration), then were submitted for 10 days to a normal diet.
Group B: The rats were orally administered with 100 mg/kg of thioacetamide at 3 days intervals for 36 days (12 times of the administration), then were submitted for 10 days to the normal diet + 0.2% of compound 4.
Group C: The rats were orally administered with 100 mg/kg of thioacetamide at 3 days intervals for 36 days (12 times of the administration) then were submitted for 10 days to the normal diet + 0.2% of compound 2.
Group D: The rats were orally administered with 100 mg/kg of thioacetamide at 3 days intervals for 36 days((12 times of the administration) then were submitted for 10 days to the normal diet + 0.2% of anethol trithion.
Group E: The rats were submitted to the normal diet as the control.
Five rate were sacrificed from each group at appropriate intervals for BSP (sulfobromophthalein) test, the results of which were shown as amounts (mg) of BSP remaining in 1 dl of plasma.

[3] = Acute oral toxicity (LD50) to male mice; conditions: mouse, in vivo
Procedure: For example the LD50 values of the compounds 4, 11 and 17 in Table 1 are more than 5,000 mg/kg. Further, these compounds have no detrimental effects on test animals administered therewith, so far as the doses thereof are within an ordinary administration range.

[4] = tested on: alcohol metabolic function of liver; experiment: Effect on concentration of ethylalcohol in the blood (mice); type: in vivo; conditions: 250 mg/kg oral pre-treatment, ethylalcohol 1,000 mg/kg oral after 6 h
Procedure: The test compounds are dissolved or suspended in olive oil and administered orally at the dose of 250 mg/kg to the mice. After 6 hours, 1,000 mg/kg of ethylalcohol was given orally. Blood was taken in a capillary from caudal vein at the time indicated in the results. The plasma was obtained by centrifugation. The concentration of ethylalcohol in the plasma was measured by FID type gas liquid chromatography. Five mice were used for each group.

[5] = tested on: glucose metabolic function of liver; experiment: Effect on glucose metabolism, blood sugar (mice); type: in vivo; conditions: 250 mg/kg oral pre-treatment, glucose 4.0 g/kg oral after 6 h
Procedure: Methods: The test compounds dissolved in olive oil and administered orally at the dose of 250 mg/kg to the mice. After 6 hours, 4.0 g/kg of glucose was orally administered. The same amount of glucose was given to the control animals. 0.02 ml of blood was taken from caudal vein of the mice at 30, 60, 90 and 120 min. after glucose administration. Blood sugar was measured by the procedure of SomogyiNelson. Number of animals used was 5 to 6 mice for each treatment.

[6] = 2 days of normal diet + 0.2% compound after 12 TAA administrations, TAA only 12.7±3.7, normal 0.4±0.1
[7] = 5 days of normal diet + 0.2% compound after 12 TAA administrations, TAA only 8.7±1.9
[8] = 10 days of normal diet + 0.2% compound after 12 TAA administrations, TAA only 1.4±0.4, normal 0.6±0.1

With COc1ccc(-c2cc(=S)ss2)cc1 [Anetol trithion, anethol trithion, reference compound] the Liver damage index [1] was 1.6, the p-GPT [1] was 38 Karmen units and the “BSP remaining in plasma” value [2, 6] was 9.7 ± 4.1 mg/dL. The “BSP remaining in plasma” value [2, 7] was 7.3 ± 3.4 mg/dL and the “BSP remaining in plasma” value [2, 8] was 0.9 ± 0.1 mg/dL.

Molecule CC(C)OC(=O)C(C(=O)OC(C)C)=C1SCS1 [Compound 4, Diisopropyl 1,3-dithietan-2-ylidene malonate] has a Liver damage index [1] of 0.0, a p-GPT [1] of 20 Karmen units and an LD50 [3] greater than 5000 mg/kg. For the same molecule, the “Concentration of Ethylalcohol in Plasma” value ([4]; 0 min, control 27 ± 17) was 10 ± 3 ppm, the “Concentration of Ethylalcohol in Plasma” value ([4]; 5 min, control 875 ± 203) was 695 ± 122 ppm and the “Concentration of Ethylalcohol in Plasma” value ([4]; 15 min, control 810 ± 191) was 637 ± 113 ppm. For the same molecule, the “Concentration of Ethylalcohol in Plasma” value ([4]; 30 min, control 690 ± 214) was 410 ± 77 ppm, the “Concentration of Ethylalcohol in Plasma” value ([4]; 60 min, control 167 ± 76) was 15 ± 8 ppm and the “BSP remaining in plasma” value [2, 6] was 7.1 ± 0.8 mg/dL. The “BSP remaining in plasma” value [2, 7] was 3.2 ± 0.6 mg/dL, the “BSP remaining in plasma” value [2, 8] was 0.6 ± 0.2 mg/dL and the “Blood Sugar” value ([5]; 0 min, control 145 ± 11.8) was 168 ± 20.4 mg/dL. For the same molecule, the “Blood Sugar” value ([5]; 30 min, control 311 ± 21.9) was 280 ± 10.8 mg/dL, the “Blood Sugar” value ([5]; 60 min, control 290 ± 14.6) was 215 ± 20.1 mg/dL and the “Blood Sugar” value ([5]; 90 min, control 263 ± 13.1) was 164 ± 16.5 mg/dL. The “Blood Sugar” value ([5]; 120 min, control 251 ± 13.5) was 165 ± 15.3 mg/dL.

Work on CCOC(=O)C(C(=O)OC(C)C)=C1SCS1 [Compound 7] yielded a Liver damage index [1] of 0.6 and a p-GPT [1] of 54 Karmen units.

Work on CCOC(=O)C(C(=O)OCC)=C1SCCCS1 [Compound 9] yielded a Liver damage index [1] of 2.2 and a p-GPT [1] of 366 Karmen units.

CCCCCOC(=O)C(C(=O)OCCCCC)=C1SCCCCS1 [Compound 19] gave a Liver damage index [1] of 0.7 and a p-GPT [1] of 157 Karmen units.

For CCOC(=O)C(C(=O)OCC)=C1SCS1 [Compound 2], the Liver damage index [1] was 0.3, the p-GPT [1] was 29 Karmen units and the “Concentration of Ethylalcohol in Plasma” value ([4]; 0 min, control 27 ± 17) was 11 ± 4 ppm. For the same molecule, the “Concentration of Ethylalcohol in Plasma” value ([4]; 5 min, control 875 ± 203) was 714 ± 167 ppm, the “Concentration of Ethylalcohol in Plasma” value ([4]; 15 min, control 810 ± 191) was 655 ± 102 ppm and the “Concentration of Ethylalcohol in Plasma” value ([4]; 30 min, control 690 ± 214) was 426 ± 101 ppm. For the same molecule, the “Concentration of Ethylalcohol in Plasma” value ([4]; 60 min, control 167 ± 76) was 15 ± 10 ppm, the “BSP remaining in plasma” value [2, 6] was 7.5 ± 1.2 mg/dL and the “BSP remaining in plasma” value [2, 7] was 3.8 ± 0.4 mg/dL. The “BSP remaining in plasma” value [2, 8] was 0.7 ± 0.1 mg/dL, the “Blood Sugar” value ([5]; 0 min, control 145 ± 11.8) was 142 ± 22.8 mg/dL and the “Blood Sugar” value ([5]; 30 min, control 311 ± 21.9) was 258 ± 17.5 mg/dL. The “Blood Sugar” value ([5]; 60 min, control 290 ± 14.6) was 229 ± 18.7 mg/dL, the “Blood Sugar” value ([5]; 90 min, control 263 ± 13.1) was 183 ± 18.1 mg/dL and the “Blood Sugar” value ([5]; 120 min, control 251 ± 13.5) was 150 ± 20.4 mg/dL.

With CC(C)OC(=O)C(C(=O)OC(C)C)=C1SCCCS1 [Compound 11, Diisopropyl 1,3-dithian-2-ylidene malonate] the Liver damage index [1] was 2.3, the p-GPT [1] was 215 Karmen units and the LD50 [3] was greater than 5000 mg/kg.

In the case of CCCCOC(=O)C(C(=O)OCCCC)=C1SCCCCS1 [Compound 18], the Liver damage index [1] is reported as 0.5 and the p-GPT [1] is reported as 41 Karmen units.

With COC(=O)C(C(=O)OC)=C1SCCCCS1 [Compound 14] the Liver damage index [1] was 3.5 and the p-GPT [1] was 762 Karmen units.

With CC(C)OC(=O)C(C(=O)OC(C)C)=C1SCCCCS1 [Compound 17, diisopropyl 1,3-dithiepan-2-ylidene malonate] the Liver damage index [1] was 3.6, the p-GPT [1] was 688 Karmen units and the LD50 [3] was greater than 5000 mg/kg.

In the case of CCCCCOC(=O)C(C(=O)OCCCCC)=C1SCS1 [Compound 6], the Liver damage index [1] is reported as 1.2 and the p-GPT [1] is reported as 167 Karmen units.

CCOC(=O)C(C(=O)OC(C)(C)C)=C1SCCCS1 [Compound 13] showed a Liver damage index [1] of 1.4 and a p-GPT [1] of 125 Karmen units.

For CCOC(=O)C(C(=O)OCC)=C1SCCCCS1 [Compound 15], the Liver damage index [1] was 3.2 and the p-GPT [1] was 533 Karmen units.

For CCCOC(=O)C(C(=O)OCCC)=C1SCCCCS1 [Compound 16], the Liver damage index [1] was 3.0 and the p-GPT [1] was 710 Karmen units.

In the case of COC(=O)C(C(=O)OC)=C1SCS1 [Compound 1], the Liver damage index [1] is reported as 1.5 and the p-GPT [1] is reported as 341 Karmen units.

In the case of CCCCOC(=O)C(C(=O)OCCCC)=C1SCCCS1 [Compound 12], the Liver damage index [1] is reported as 1.8 and the p-GPT [1] is reported as 284 Karmen units.

Molecule CCCCOC(=O)C(C(=O)OCCCC)=C1SCS1 [Compound 5] has a Liver damage index [1] of 1.2 and a p-GPT [1] of 158 Karmen units.

In the case of CCCOC(=O)C(C(=O)OCCC)=C1SCS1 [Compound 3, Di-n-propyl 1,3-dithietan-2-ylidene malonate], the Liver damage index [1] is reported as 0.2 and the p-GPT [1] is reported as 22 Karmen units.

COC(=O)C(C(=O)OC)=C1SCCCS1 [Compound 8] gave a Liver damage index [1] of 2.8 and a p-GPT [1] of 437 Karmen units.

In the case of CCCOC(=O)C(C(=O)OCCC)=C1SCCCS1 [Compound 10, Di-n-propyl 1,3-dithian-2-ylidene malonate], the Liver damage index [1] is reported as 2.2, the p-GPT [1] is reported as 50 Karmen units and the “Concentration of Ethylalcohol in Plasma” value ([4]; 0 min, control 27 ± 17) is reported as 13 ± 4 ppm. The “Concentration of Ethylalcohol in Plasma” value ([4]; 5 min, control 875 ± 203) was 753 ± 78 ppm, the “Concentration of Ethylalcohol in Plasma” value ([4]; 15 min, control 810 ± 191) was 698 ± 95 ppm and the “Concentration of Ethylalcohol in Plasma” value ([4]; 30 min, control 690 ± 214) was 451 ± 114 ppm. The “Concentration of Ethylalcohol in Plasma” value ([4]; 60 min, control 167 ± 76) was 12 ± 11 ppm, the “Blood Sugar” value ([5]; 0 min, control 145 ± 11.8) was 148 ± 14.7 mg/dL and the “Blood Sugar” value ([5]; 30 min, control 311 ± 21.9) was 267 ± 21.2 mg/dL. For the same molecule, the “Blood Sugar” value ([5]; 60 min, control 290 ± 14.6) was 222 ± 18.3 mg/dL, the “Blood Sugar” value ([5]; 90 min, control 263 ± 13.1) was 162 ± 14.4 mg/dL and the “Blood Sugar” value ([5]; 120 min, control 251 ± 13.5) was 148 ± 18.8 mg/dL.

Molecule NC(=O)CCCCC1CCSS1 (stereo not shown) [Thioctic acid amide, reference compound] has a Liver damage index [1] of 4.8 and a p-GPT [1] of 763 Karmen units.

In the case of CCOC(=O)C(C(=O)OC(C)CC)=C1SCCCCS1 (stereo not shown) [Compound 20], the Liver damage index [1] is reported as 1.0, the p-GPT [1] is reported as 188 Karmen units and the “Concentration of Ethylalcohol in Plasma” value ([4]; 0 min, control 27 ± 17) is reported as 15 ± 2 ppm. For the same molecule, the “Concentration of Ethylalcohol in Plasma” value ([4]; 5 min, control 875 ± 203) was 710 ± 134 ppm, the “Concentration of Ethylalcohol in Plasma” value ([4]; 15 min, control 810 ± 191) was 652 ± 143 ppm and the “Concentration of Ethylalcohol in Plasma” value ([4]; 30 min, control 690 ± 214) was 404 ± 93 ppm. The “Concentration of Ethylalcohol in Plasma” value ([4]; 60 min, control 167 ± 76) was 18 ± 6 ppm.
